Test results as given in patent US10231971B2, “Pharmaceutical composition for preventing and treating dry eye diseases, containing imatinib as active ingredient” (AVIXGEN INC., priority 2015, dated 2019).

What was measured:
[1] = tested on: keratoconjunctivitis sicca (dry eye) animal model; assay: Corneal epithelium protection: lissamine green staining of the cornea in keratoconjunctivitis sicca model; type: in vivo, Spraque-Dawley (SD) rats
Description: To carry out an experiment for dry corneal epithelial damage, a dry eye animal model was constructed. 8-week-old Spraque-Dawley (SD) rats (available from Orient Bio) were used as an animal, keratoconjunctivitis sicca was induced by administering an eye drop containing 0.1% benzalkonium chloride (Sigma Aldrich) in 1% atropine sulfate (Alcon) twice a day for 2 weeks.
The imatinib eye drop (1 mg/ml) was administered dropwise to an eye twice a day for 1 week after 7 days of administration of 1% atropine sulfate and 0.1% benzalkonium chloride. To compare therapeutic effects, a 0.05% Cyclosporin eye drop (Restasis, Allergan) was used as a reference drug.
Corneal epithelial damage was identified in the keratoconjunctivitis sicca animal model by staining a surface of the cornea with a 1% lissamin green solution and observing a damaged region thereof (see FIG. 1).
Damage to corneal epithelium cells due to dryness was identified in a keratoconjunctivitis sicca (dry eye)-induced cornea by staining a dried state of the corneal epithelium cells with lissamin green (see FIG. 1). […] A stained area after staining was expressed as a percentage (%) with respect to a total corneal area.

[2] = tested on: keratoconjunctivitis sicca (dry eye) animal model; conditions: imatinib eye drop (0.1 mg/ml), twice a day for 1 week; FIG. 4
Description: White SD rats were used as an animal, and keratoconjunctivitis sicca was induced by administering 1% atropine sulfate and 0.1% benzalkonium chloride dropwise to an eye twice a day for 2 weeks.
An imatinib eye drop (0.1 mg/ml) was administered dropwise to an eye twice a day for 1 week after 7 days of administration of 1% atropine sulfate and 0.1% benzalkonium chloride.
In order to observe corneal degeneration in the keratoconjunctivitis sicca (dry eye) model, F-actin staining was performed. F-actin was stained with phalloidin labeled with a fluorescent material.

[3] = tested on: keratoconjunctivitis sicca (dry eye) animal model; assay: Invasion of specific inflammatory cells into the cornea: LSP-1 immunostaining in keratoconjunctivitis sicca model; type: in vivo, Spraque-Dawley (SD) rats; conditions: imatinib eye drop 0.1%
Description: An experiment was carried out using the same administration method as that used in the animal model of Example 1, and then an inflammation inhibitory effect of imatinib on specific inflammatory cells invaded into the cornea was identified.
To identify inflammatory cells in the cornea in keratoconjunctivitis sicca (dry eye), the eye was cryosectioned, and inflammatory cells having an antigen of LSP-1 were stained and observed (See FIG. 5). Inflammation-associated cells such as lymphocytes, neutrophils, and macrophages have LSP-1 can be observed after being immunostained using an LSP-1 antibody. Inflammatory cells were observed by 0.61±0.05 in a control (a drug-non-treated group) and by 0.52±0.05 in an imatinib eye drop (0.1%) (See FIG. 6).

Compound: Cc1ccc(NC(=O)c2ccc(CN3CCN(C)CC3)cc2)cc1Nc1nccc(-c2cccnc2)n1 [imatinib]
- lissamine green stained area as percentage of total corneal area ([1]; concentration-dependent efficacy test, 0.01% (0.1 mg/ml), vehicle control 12.8±1.98%, FIG. 3): 8.2±0.97%
- lissamine green stained area as percentage of total corneal area ([1]; concentration-dependent efficacy test, 0.05% (0.5 mg/ml), vehicle control 12.8±1.98%, FIG. 3): 6.18±0.9%
- lissamine green stained area as percentage of total corneal area ([1]; concentration-dependent efficacy test, 0.1% (1 mg/ml), vehicle control 12.8±1.98%, FIG. 3): 3.7±0.87%
- lissamine green stained area as percentage of total corneal area ([1]; concentration-dependent efficacy test, 0.5% (5 mg/ml), vehicle control 12.8±1.98%, FIG. 3): 3.5±1.1%
- lissamine green stained area as percentage of total corneal area ([1]; concentration-dependent efficacy test, 1.0% (10 mg/ml), vehicle control 12.8±1.98%, FIG. 3): 3.1±1.2%
- effect on lissamine green staining when administered according to concentration ([1]; imatinib 0.01% to 1.0%, FIG. 3): concentration-dependent effect
- lissamine green stained area as percentage of total corneal area ([1]; imatinib 0.1% (1 mg/ml) eye drop, twice a day for 1 week, vehicle control 11±1.26%, FIG. 2): 2.6±0.39%
- corneal degeneration (keratinization of corneal epithelial cells, F-actin staining) [2]: not observed
- effect on inflammation in keratoconjunctivitis sicca (inflammatory cell staining) [3]: had an inflammation inhibitory effect
- inflammatory cells observed (LSP-1-stained cells in the cornea) ([3]; control (drug-non-treated group) 0.61±0.05, FIG. 6): 0.52±0.05
